Measured values: PubChem BioAssay AID2060493 (Molecular Pharmacology Branch, DTP, NCI, 2025)

Test system: 616215-338-R-J1-PDC tumor spheroids, viability
Test: Anticancer human tumor 616215-338-R-J1-PDC patient-derived colon adenocarcinoma cell line growth inhibition [GQUAD]
Details: spheroids with HUVEC and MSC; for IC50: curve of first compound; for viability, T/C: stronger effect = lower value; active = viability on the fitted dose curve at most 10% of control; inactive = the rest
Source text: DNA G-quadruplex Stabilizer Agents in Combinations in Complex Spheroids
A high-throughput screen of multi-cell type tumor spheroids was designed to identify active combinations of DNA G-quadruplex stabilizer agents and targeted small molecules. Complex spheroids include a stromal component modeled by human endothelial cells (HUVEC) and fibroblasts modeled by human mesenchymal stem cells (MSCs). The concentration ranges selected for each drug and investigational agent were based upon clinically achievable concentrations if the clinical Cmax of the agent was known.
Compounds. The drugs and investigational agents: pidnarulex (CX-5461; NSC782164), APTO-253 (NSC789042), BRACO-19 (NSC847499), peposertib (NSC802822), ceralasertib (NSC780249), elimusertib (NSC800525), camonsertib (NSC841442), AZD-1390 (NSC803789), olaparib (NSC753686), talazoparib (NSC767125), ART-558 (NSC835418), sotorasib (NSC818433), MRTX-1133 (NSC836407), SN-38 (NSC673596), topotecan (NSC609699), etoposide (NSC141540), doxorubicin (NSC123127), gemcitabine (NSC613327), 5-fluorouracil (NSC19893), paclitaxel (NSC125973), vemurafenib (NSC761431), panobinostat (NSC761190), R-306465 (JNJ-16241199; NSC773264), adavosertib (NSC754352), TP-3654 (NSC805149), carboplatin (NSC241240), KSQ-4279 (NSC840948), and staurosporine (NSC755774) were obtained from the National Cancer Institute (NCI) Developmental Therapeutics Program Chemical Repository (34). The FDA-approved anticancer drug set is available from the NCI Developmental Therapeutics Program. […] The stock solutions were prepared in dimethyl sulfoxide (DMSO, Sigma-Aldrich, St. Louis, MO, cat. D2650) at 800-fold the tested concentration and stored at -70 degrees C prior to their use. All drugs and investigational agents were tested over a range starting from a high concentration at or near the clinical Cmax and decreasing in half-log increments. If the clinical Cmax for an agent had not been determined, the highest concentration tested was 10 microM.
2.3 Cell Culture. All cells were maintained in an incubator at 37 degrees C and 5% CO2 with 95% humidity. The PDC lines were cultured according to standard operating procedures established by the NCI PDMR. All PDCs were thawed and cultured in Matrigel-coated flasks prepared with a working solution of 1X Ham's F-12 nutrient mix, without supplementation (Invitrogen, cat. 11765054), 100 U/mL penicillin-streptomycin (Invitrogen, cat. 15140122), and 2.5% Matrigel (Corning Inc., cat. 354248) for the first three passages. The 857933-349-R-J2-PDC line was cultured in 6C/Colon 1B media, which includes advanced DMEM/F-12 (Thermo Fisher Scientific, cat. 12634028), 10 mM HEPES (Thermo Fisher Scientific, cat. 15630080), 1X GlutaMAX supplement (Thermo Fisher Scientific, cat. 35050061), 0.1 mg/mL primocin (InvivoGen, cat. ant-pm-2), 10% defined fetal bovine serum, heat inactivated (HyClone Laboratories Inc., cat. SH30070.03HI), 50% L-WRN conditioned media (ATCC, cat. CRL-3276), 1.25 mM N-Acetyl-L-cysteine (Sigma-Aldrich, cat. A9165), 10 mM nicotinamide (Sigma-Aldrich, cat. N0636), 1X B-27 supplement (Thermo Fisher Scientific, cat. 17504044), 1X N-2 supplement (Thermo Fisher Scientific, cat. 17502048), 10 microM Y-27632 dihydrochloride (Tocris Bioscience, cat. 1254), and 50 ng/mL human EGF recombinant protein (Thermo Fisher Scientific, cat. PHG0311). The 485176-168-R4-J1-PDC line was cultured in Panc media, which includes all 6C/Colon 1B media components plus 100 ng/mL human FGF-10 (Thermo Fisher Scientific, cat. 100-26), 500 nM SB-431542 (Selleckchem, cat. S1067), and gastrin (Tocris, cat. 3006).
[…]

[1] = second compound 0.0316 µM, first compound 0.0316 µM
[2] = second compound 0.0316 µM, first compound 0.1 µM
[3] = second compound 0.0316 µM, first compound 0.316 µM
[4] = second compound 0.0316 µM, first compound 1 µM
[5] = second compound 0.0316 µM, first compound 3.16 µM
[6] = second compound 0.0316 µM, first compound 10 µM
[7] = second compound 0.1 µM, first compound 0.0316 µM
[8] = second compound 0.1 µM, first compound 0.1 µM
[9] = second compound 0.1 µM, first compound 0.316 µM
[10] = second compound 0.1 µM, first compound 1 µM
[11] = second compound 0.1 µM, first compound 3.16 µM
[12] = second compound 0.1 µM, first compound 10 µM
[13] = second compound 0.316 µM, first compound 0.0316 µM
[14] = second compound 0.316 µM, first compound 0.1 µM
[15] = second compound 0.316 µM, first compound 0.316 µM
[16] = second compound 0.316 µM, first compound 1 µM
[17] = second compound 0.316 µM, first compound 3.16 µM
[18] = second compound 0.316 µM, first compound 10 µM
[19] = second compound 1 µM, first compound 0.0316 µM
[20] = second compound 1 µM, first compound 0.1 µM
[21] = second compound 1 µM, first compound 0.316 µM
[22] = second compound 1 µM, first compound 1 µM
[23] = second compound 1 µM, first compound 3.16 µM
[24] = second compound 1 µM, first compound 10 µM
[25] = second compound 3.16 µM, first compound 0.0316 µM
[26] = second compound 3.16 µM, first compound 0.1 µM
[27] = second compound 3.16 µM, first compound 0.316 µM
[28] = second compound 3.16 µM, first compound 1 µM
[29] = second compound 3.16 µM, first compound 3.16 µM
[30] = second compound 3.16 µM, first compound 10 µM
[31] = second compound 10 µM, first compound 0.0316 µM
[32] = second compound 10 µM, first compound 0.1 µM
[33] = second compound 10 µM, first compound 0.316 µM
[34] = second compound 10 µM, first compound 1 µM
[35] = second compound 10 µM, first compound 3.16 µM
[36] = second compound 10 µM, first compound 10 µM
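Note: spheroids exposed to agents for 7 days before readout.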
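Throughout, for viability, T/C: percent viability relative to DMSO vehicle control wells taken as 100%.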

COc1ncnc(C2CC2)c1-c1ncc2cnn(Cc3ccc(-c4nc(C(F)(F)F)cn4C(C)C)cc3)c2n1 + Cc1[nH]c2ccc(F)cc2c1-c1nc2c3cccnc3c3ncccc3c2[nH]1
> 10000 nM: IC50 (second compound 0.0316 µM) | IC50 (second compound 0.1 µM) | IC50 (second compound 0.316 µM) | IC50 (second compound 1 µM) | IC50 (second compound 3.16 µM) | IC50 (second compound 10 µM)
inactive: viability, T/C [1] 109% | viability, T/C [2] 98.5% | viability, T/C [3] 106% | viability, T/C [4] 91.9% | viability, T/C [5] 106% | viability, T/C [6] 101% | viability, T/C [7] 108% | viability, T/C [8] 93.7% | viability, T/C [9] 96.1% | viability, T/C [10] 98.2% | viability, T/C [11] 100% | viability, T/C [12] 105% | viability, T/C [13] 106% | viability, T/C [14] 96.3% | viability, T/C [15] 96.5% | viability, T/C [16] 99.8% | viability, T/C [17] 103% | viability, T/C [18] 107% | viability, T/C [19] 100% | viability, T/C [20] 97.9% | viability, T/C [21] 96.5% | viability, T/C [22] 101% | viability, T/C [23] 108% | viability, T/C [24] 99.8% | viability, T/C [25] 101% | viability, T/C [26] 104% | viability, T/C [27] 94.7% | viability, T/C [28] 105% | viability, T/C [29] 109% | viability, T/C [30] 104% | viability, T/C [31] 97% | viability, T/C [32] 90.1% | viability, T/C [33] 98.4% | viability, T/C [34] 98.4% | viability, T/C [35] 98.7% | viability, T/C [36] 96.3%

CC1COCCN1c1cc(C2(O)CC3CCC(C2)O3)c2cnn(-c3ccn[nH]3)c2n1 (centres undefined) + Cc1cnc(CNC(=O)c2c(=O)c3ccc(N4CCCN(C)CC4)nc3n3c2sc2ccccc23)cn1
< 31.6 nM: IC50 (second compound 0.1 µM) | IC50 (second compound 0.316 µM) | IC50 (second compound 1 µM) | IC50 (second compound 3.16 µM) | IC50 (second compound 10 µM)
107 nM: IC50 (second compound 0.0316 µM)
inactive: viability, T/C [1] 76.3% | viability, T/C [2] 52.5% | viability, T/C [3] 29.4% | viability, T/C [4] 27.6% | viability, T/C [5] 25.2% | viability, T/C [6] 16.3% | viability, T/C [7] 38% | viability, T/C [8] 35.2% | viability, T/C [9] 33% | viability, T/C [10] 24.1% | viability, T/C [11] 20.8% | viability, T/C [12] 25.4% | viability, T/C [13] 43% | viability, T/C [14] 30.8% | viability, T/C [15] 23.8% | viability, T/C [16] 19.7% | viability, T/C [17] 18.9% | viability, T/C [18] 13.2% | viability, T/C [19] 29.5% | viability, T/C [20] 32.9% | viability, T/C [21] 22.2% | viability, T/C [22] 28.2% | viability, T/C [23] 22.3% | viability, T/C [24] 17.6% | viability, T/C [25] 42.9% | viability, T/C [26] 22% | viability, T/C [27] 18.1% | viability, T/C [28] 20.7% | viability, T/C [29] 15.8% | viability, T/C [30] 5.2% | viability, T/C [31] 24.5% | viability, T/C [32] 28.1% | viability, T/C [33] 29.5% | viability, T/C [34] 14.7%
active: viability, T/C [35] 11.2% | viability, T/C [36] 0.29%
